Each structure is given as a SMILES string.

One may read the melting point as the temperature, or range, at which the solid turns liquid.

For `Cn1c(=O)n(Cc2cccs2)c(=O)c2cc(C(=O)NCc3ccc4c(c3)OCO4)ccc21`, the melting point was determined as 224 °C.

On to `CC(C)(C)OC(=O)N[C@@H](Cc1ccccc1)c1nc2c(C(F)(F)F)cccc2c(=O)o1`, for which the melting point came out at 145 °C.

As to `Cc1nn(C)c(C#N)c1NC=O`, the melting point was determined as 135 °C.

`CCCCc1nnc2ccccc2c1Cc1ccc(-c2ccccc2)c(C(=O)O)c1` gave a melting point of 210 °C.

For `COC(=O)COc1cc2c(c3c1c(C(=O)C(N)=O)c(C)n3Cc1ccccc1)CCC2`, the melting point was in the range of 135 to 138 °C.

In the case of `CCOC(=O)c1[nH]cc2c1NC1=C(C(=O)CCC1)C2c1ccc(Sc2nc3cc(Cl)c(Cl)cc3[nH]2)o1` (stereo not drawn), the melting point was determined as 180 °C.

`CCOC(=O)C1(I)C=CC(c2ccccc2)=CC1` (stereo not drawn) registered a melting point of 105 to 106 °C.

Turning to `COc1c(Cl)ccc(-c2cc(N)c(Cl)c(C(=O)NOC(C)(C)C)n2)c1F`, the melting point was 184 to 187 °C.

On to `COc1cc(OC)cc(C(=O)NC(NC(=NC#N)Nc2ccc(C(F)(F)F)nc2)C(C)(Cl)Cl)c1` (stereo not drawn), for which the melting point was 187 to 189 °C.

Compound `Cc1cc(-c2ccc(C(F)(F)F)cc2)nc2ccnn12` showed a melting point of 89 to 90 °C.

As to `CCOC(=O)C(=CC(=CN(C)C)C(=O)C(=O)OC)Sc1ccccc1`, the melting point stood at 118 °C.

`O=C1NC(=O)C(Sc2ccc(Cl)cc2)S1` (stereo not drawn) displayed a melting point of 109 to 110 °C.

In turn, `COc1cccc(-c2ccc3cc(OC)ccc3c2Oc2ccc(O)cc2)c1` registered a melting point of 125 to 126 °C.

In turn, `CC(C)(C=NO)C1CCN(CC#Cc2cc(C(F)(F)F)cc(C(F)(F)F)c2)CC1` returned a melting point of 63 to 65 °C.

In turn, `CCOC(=O)c1nnc2ccc([N+](=O)[O-])cc2c1O` registered a melting point of 294 to 296 °C.

`CS(=O)(=O)c1ccc(-n2nc(CCCO)cc2-c2ccccc2)cc1` gave a melting point of 120 to 123 °C.

`CC(Cl)(Cl)C(NC(=O)c1ccc(Cl)cc1)NC(=NC#N)Nc1ccc(Cl)nc1` (stereo not drawn) yielded a melting point of 199 to 200 °C.

On to `CC(CCl)N1C(=O)N(c2ccc(Cl)cc2)CC1C` (stereo not drawn), for which the melting point fell in the range of 70 to 72 °C.

On to `CC(C)CCC(=O)NC1(C(=O)NC2N=C(C(C)(C)C)c3ccccc3N(C)C2=O)CCCC1` (stereo not drawn), for which the melting point was in the range of 175 to 178 °C.

The compound `COc1ccc(COC(=O)c2cc([N+](=O)[O-])c3ccccc3c2OS(=O)(=O)C(F)(F)F)cc1` had a melting point of 74 to 75 °C.

Compound `Cc1nc2c(OCCNCc3ccccc3)cccc2[nH]1` had a melting point greater than 250 °C.

With `COc1ccc(Nc2nc(C)ccc2S(=O)(=O)c2ccc(OCc3ccccc3OC)cc2)c(C)c1`, the melting point was in the range of 70 to 72 °C.

With `C=CCc1cc(Cc2cnc(N)nc2N)c2ccc(C)nc2c1O`, the melting point is 236 to 237 °C.

As to `C#CCN1C(=O)COc2cc(F)c(N3C(=O)C4C5CC5CN4C3=O)cc21` (stereo not drawn), the melting point lay in the range of 217 to 219 °C.

`O=Cc1cccc(C=Cc2ccc3ccccc3n2)c1` gave a melting point of 78.6 to 80.8 °C.

`COc1ccccc1N1CCN(CCn2c(=O)[nH]c3sc(Cl)cc3c2=O)CC1` yielded a melting point of 228 to 230 °C.

In turn, `CCOc1ccccc1C(C)CC(=O)Nc1sc2c(c1C#N)CCNC2` (racemic) yielded a melting point of 111 to 115 °C.

The compound `O=C1N(Cc2cncc(F)c2)c2ccccc2C12COc1cc3c(cc12)OCCO3` (stereo not drawn) had a melting point of 197 to 200 °C.

As to `O=C(c1ccccc1)N1CCN(CCCN2C(=O)c3ccccc3C2=O)CC1`, the melting point fell in the range of 100 to 104 °C.

In turn, `CS(=O)(=O)Oc1ccc(CCOc2ccc(-c3ncccc3C(=O)O)cc2C#N)cc1` came in with a melting point of 85 to 86 °C.

Compound `C[Si](C)(C)C1=CC(=O)C([Si](C)(C)C)=CC1=O` came in with a melting point of 180 °C.

Compound `CC(=NNC(=N)N)c1cccc(OCc2ccc3ccccc3c2)c1` came in with a melting point of 176 to 178 °C.

On to `CC(C)n1cc(-c2nc(C(N)=O)c(N)nc2-c2ccc(F)c(F)c2)ccc1=O`, for which the melting point turned out to be 226 °C.

In the case of `Nc1nc2cc(Br)ccn2n1`, the melting point was 190 to 192 °C.

On to `COc1cccc(C(=O)NCCc2ccc(-c3ccc(OC(C)(C)C(=O)O)cc3)cc2)c1`, for which the melting point worked out at 117 °C.

For `CCN(CC)CCN1C(=O)c2cscc2N(C)c2ccccc21`, the melting point lay within 92 to 93 °C.

Regarding `CCCOc1ccc(COCCN2CCOCC2)cc1-c1nc2c(CCC)nn(C)c2c(=O)[nH]1`, the melting point fell in the range of 65 to 66 °C.

In the case of `CC(C)CC(=O)Nc1cccc(-c2ccnc3c(-c4cccc(Cl)c4Cl)cnn23)c1`, the melting point fell in the range of 154 to 156 °C.

As to `Cc1noc(NS(=O)(=O)c2cc(S(=O)(=O)c3ccccc3)cs2)c1Br`, the melting point fell in the range of 181 to 184 °C.

`CC(=O)Nc1cccnc1NC(=O)C(C)(C)Oc1cccc(Cl)n1` registered a melting point of 185 °C.

As to `COc1ccc2c(c1)Sc1ccccc1C(=O)N2`, the melting point lay in the range of 232 to 234 °C.

Turning to `CSC1NC(=O)N(C)C(=O)N1C` (stereo not drawn), the melting point is 137 to 139 °C.

Regarding `Cc1onc(-c2ccccc2)c1-c1ccc(S(C)(=O)=O)cc1`, the melting point lay in the range of 54 to 56 °C.

Consider `Cc1c(-c2ccc3c(c2)NC(=O)CO3)nc2ccccn12`, for which the melting point was 280 to 282 °C.

`CCCCN(Cc1ccc2cc(O)ccc2c1)C(=O)c1c(C)oc2ccccc12` displayed a melting point of 126 to 128 °C.

`Oc1cc(-c2ccccc2)nc(O)n1` gave a melting point of 195 to 200 °C.

In turn, `CCCS(=O)(=O)c1nc[nH]n1` gave a melting point of 116 to 117 °C.

In turn, `CCCCN1CC[C@@H](CNC(=O)c2cc(Cl)c(N)c3c2OCCO3)[C@H](O)C1` (relative stereo) registered a melting point of 122 °C.

As for `CN1CCC23CC(=O)CCC2C1Cc1ccccc13` (stereo not drawn), the melting point was 164 to 166 °C.

The compound `O=C(OCCn1c(-c2ccccc2)nc2cc(CN3CCN(C(c4ccccc4)c4ccccc4)CC3)ccc21)c1ccccc1` came in with a melting point of 164 °C.

The compound `O=c1nc(-c2cccc(CCc3nnn[nH]3)n2)sc2ccccc12` displayed a melting point of 157 °C.

As for `O=C(O)c1ccccc1C(=O)NCc1ccccn1`, the melting point was in the range of 140 to 142 °C.

Compound `O=C(O)c1cc2c(-c3ccncc3)nccc2[nH]c1=O` displayed a melting point greater than 300 °C.

As for `O=C(Nc1ccc(N2CCN(C(=O)C(O)c3ccccc3Cl)CC2)nc1)Nc1ccccc1F` (stereo not drawn), the melting point was in the range of 127 to 128 °C.

On to `Cc1cc(O)ccc1S(C)(=O)=O`, for which the melting point was 105 °C.

`CC(C(=O)Nc1ccccc1)n1nc(O)c2[nH]c3cc(Cl)ccc3c(=O)c2c1=O` (stereo not drawn) returned a melting point of 215 °C.

Compound `c1ccc(CN2CC3(COc4cc5c(cc43)CCO5)c3c(-c4cccnc4)cccc32)nc1` (stereo not drawn) returned a melting point greater than 200 °C.

As for `CNC(=O)N[C@H]1CC[C@H](CCN2CCN(c3ccc(OC)c(Cl)c3Cl)CC2)CC1`, the melting point was in the range of 237 to 241 °C.

Turning to `COC(=O)c1[nH]c2c(Cl)ccc(Cl)c2c1C`, the melting point was 110 to 111 °C.

For the compound `COc1ccnc(CC(C)(C)C(=O)O)c1`, the melting point is 150 to 151 °C.

`CC(=O)N1C[C@@H](P(c2ccc(C)cc2)c2ccc(C)cc2)[C@H](P(c2ccc(C)cc2)c2ccc(C)cc2)C1` registered a melting point of 164 to 167 °C.

In turn, `COc1cc2ccc(-c3cc(C(=O)O)cs3)cc2cc1C12CC3CC(CC(C3)C1)C2` registered a melting point of 314 to 316 °C.

The compound `CCOC(=O)c1cc(=O)c(Oc2ccc(O)cc2)co1` yielded a melting point of 206 to 208 °C.

`COc1ccc2c(c1)c(Cc1cc(=O)n(C3CCCCCC3)[nH]1)c(C)n2C(=O)c1ccc(Cl)cc1` displayed a melting point of 145 to 148 °C.

In turn, `CN(Cc1cccs1)C(=O)C1CC2C=CC1C2` (stereo not drawn) gave a melting point of 74 to 75 °C.

The compound `O=C1C=CC(O)(c2ccc(OCCCCl)cc2)O1` (stereo not drawn) displayed a melting point of 219 to 220 °C.

`O=C(NC(Cc1ccc(OCc2ccccc2)cc1)c1noc(=O)[nH]1)c1cn2cc(-c3ccc(Cl)cc3)ccc2n1` (stereo not drawn) registered a melting point of 167 °C.

For `Nc1nc(Cl)c(CCCl)c(Cl)n1`, the melting point fell in the range of 210 to 213 °C.

`O=C(NCc1ccc(Cl)cc1)c1cnc2c(F)cc(I)cc2c1O` gave a melting point of 268 to 270 °C.

In turn, `O=C1NC(=O)c2c1c(O)nc1cc(Cl)ccc21` returned a melting point greater than 350 °C.

In the case of `CCCCCCCCCCCCCCCCC(C)C(=S)OC` (stereo not drawn), the melting point was in the range of 39 to 40 °C.

Compound `CCCC1(C(=O)N(C)Cc2ccccc2)c2ccccc2-c2ccccc21` returned a melting point of 73 to 74 °C.

On to `O=C(Nc1ccn(C(=O)c2ccccc2)c(=O)n1)c1ccccc1`, for which the melting point was in the range of 215 to 216 °C.

For the compound `CCCN1C(=O)C2C3CCC(O3)C2C1=O` (stereo not drawn), the melting point lay in the range of 79 to 80 °C.

With `COC(=O)C(=Cc1ccc(OCCc2nc(-c3ccccc3)oc2C)cc1)C(=O)OC`, the melting point lay in the range of 104 to 105 °C.

`COc1ccc(CNc2cc(C(O)CNC(C)(C)CCn3cnc4ccccc43)ccc2O)cc1` (stereo not drawn) showed a melting point of 154 to 155 °C.

The compound `N#CCNC(=O)C1(NC(=O)c2ccc(N3CCNCC3)cc2)CCCCC1` displayed a melting point of 206 to 210 °C.

`C=Cc1c(NCc2ccco2)nc(C2CC2)nc1C(=O)OC` gave a melting point of 85 to 86 °C.

With `C=CCOc1cccc(-c2cn3ccc4ccccc4c3n2)c1`, the melting point was in the range of 83 to 85 °C.

Compound `COc1cc(OC)nc(Oc2ccc3ccccc3c2C(=O)O)n1` displayed a melting point of 187 to 189 °C.

With `COc1ccc(Nc2nc(OCC3CCCCC3)c3[nH]cnc3n2)cc1`, the melting point was 189 to 192 °C.

In turn, `Cc1coc(NCCN2CCC(Nc3nc4ccccc4n3Cc3ccc(F)cc3)CC2)n1` displayed a melting point of 178 °C.

For `OCc1ccnc(F)c1`, the melting point lay within 61 to 63 °C.

Regarding `Cc1cc(-c2cnn3c(C(F)(F)F)cc(-c4ccc(Cl)c(Cl)c4)nc23)cc(C)n1`, the melting point came to 281 °C.

The compound `CCCCc1c(C(=O)OCC)cc(Oc2nnnn2-c2ccccc2)c2c(OC)cccc12` yielded a melting point of 144 to 146 °C.

`CC(C)CCSc1cc(C(=O)O)cc(S(=O)(=O)Cl)c1Oc1ccccc1` registered a melting point of 168 to 169 °C.

`COc1ccc(C=Cc2ccc([N+](=O)[O-])cc2C(F)(F)F)cc1`: the melting point fell in the range of 120 to 123 °C.

In the case of `COc1ccc(-c2cc(CCCN3CCN(C)CC3)c(=O)n(Cc3ccc(F)cc3)n2)cc1F`, the melting point was 108 to 109 °C.

(Values after a melting point compilation (Tetko et al.; mined from patent text by program, amines drawn as free bases though some values may be those of a salt).)
